Measurements reported in US7423054B2, “Therapeutic pyrazolo[3,4-b]pyridines and indazoles” (Warner Lambert Company LLC, priority 2004, dated 2008).
Structures can show the parent of a compound that is named as a salt.

How the values were obtained:
[1] = target: T1, human serotonin transporter (hSERT) (Homo sapiens, UniProt P31645); experiment: hSERT receptor binding ([125I]-RTI-55 displacement, membranes of transfected HEK-293 cells); settings: HEK-293 membranes, Ki from IC50 by Cheng-Prusoff, read-out: SERT Ki
T1 construct: expressed in transfected cells; host or cells: HEK-293 cells (membrane preparation)
T1 sequence (P31645 whole entry): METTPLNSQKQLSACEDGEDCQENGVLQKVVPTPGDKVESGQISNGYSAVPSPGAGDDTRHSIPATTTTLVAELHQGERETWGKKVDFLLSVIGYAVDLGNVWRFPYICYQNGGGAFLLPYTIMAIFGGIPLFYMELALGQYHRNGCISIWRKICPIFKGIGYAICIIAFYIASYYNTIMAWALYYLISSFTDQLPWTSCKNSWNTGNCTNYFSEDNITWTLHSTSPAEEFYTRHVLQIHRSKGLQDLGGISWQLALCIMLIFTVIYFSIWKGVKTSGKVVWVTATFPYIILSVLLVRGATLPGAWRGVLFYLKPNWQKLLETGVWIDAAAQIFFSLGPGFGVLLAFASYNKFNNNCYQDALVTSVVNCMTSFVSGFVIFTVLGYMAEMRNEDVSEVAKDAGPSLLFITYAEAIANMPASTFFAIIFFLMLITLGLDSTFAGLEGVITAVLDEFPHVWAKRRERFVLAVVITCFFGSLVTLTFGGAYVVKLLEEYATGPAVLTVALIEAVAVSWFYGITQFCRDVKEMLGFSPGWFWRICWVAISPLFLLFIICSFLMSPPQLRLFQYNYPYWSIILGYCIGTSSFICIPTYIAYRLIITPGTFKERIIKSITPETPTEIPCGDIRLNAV
Method: (§1) The ability of the compounds of the present invention to inhibit a norepinephrine transporter and/or a serotonin transporter can be determined using conventional radioligand receptor transport assays. The receptors can be heterologously expressed in cell lines and experiments conducted in membrane preparations from the cell lines that express a norepinephrine transporter and/or a serotonin transporter.
(§2) Cell pastes of HEK-293 cells transfected with a human serotonin transporter cDNA were prepared. The cell pastes were resuspended in 400 to 700 ml of Krebs-HEPES assay buffer (25 mM HEPES, 122 mM NaCl, 3 mM KCl, 1.2 mM MgSO4, 1.3 mM CaCl2, and 11 mM glucose, pH 7.4) with a Polytron homogenizer at Setting 7 for 30 seconds. Aliquots of membranes (˜2.5 mg/ml protein) were stored in liquid nitrogen until used.
Assays were set up in FlashPlates pre-coated with 0.1% PEI in a total volume of 250 μl containing: test compound (10^−5M to 10^−12M), cell membranes, and 50 pM [^125I]-RTI-55 (Perkin Elmer, NEX-272; specific activity 2200 Ci/mmol). The reaction was incubated and gently agitated for 90 minutes at room temperature, and terminated by removal of assay volume. Plates were covered, and bound [^125I]-RTI-55 was determined using a Wallac Trilux Beta Plate Counter. Test compounds were run in duplicate, and specific binding was defined as the difference between binding in the presence and absence of 10 μM citalopram.
Excel and GraphPad Prism software were used for data calculation and analysis. IC50 values were converted to Ki values using the Cheng-Prusoff equation. The Ki values (nM) for the hSERT are reported below in Table 11: […]

[2] = target: T2, human norepinephrine transporter (hNET) (Homo sapiens, UniProt P23975); experiment: hNET receptor binding ([125I]-RTI-55 displacement, membranes of transfected HEK-293 cells); settings: HEK-293 membranes, Ki from IC50 by Cheng-Prusoff, read-out: NET Ki
T2 construct: expressed in transfected cells; host or cells: HEK-293 cells (membrane preparation)
T2 sequence (P23975 whole entry): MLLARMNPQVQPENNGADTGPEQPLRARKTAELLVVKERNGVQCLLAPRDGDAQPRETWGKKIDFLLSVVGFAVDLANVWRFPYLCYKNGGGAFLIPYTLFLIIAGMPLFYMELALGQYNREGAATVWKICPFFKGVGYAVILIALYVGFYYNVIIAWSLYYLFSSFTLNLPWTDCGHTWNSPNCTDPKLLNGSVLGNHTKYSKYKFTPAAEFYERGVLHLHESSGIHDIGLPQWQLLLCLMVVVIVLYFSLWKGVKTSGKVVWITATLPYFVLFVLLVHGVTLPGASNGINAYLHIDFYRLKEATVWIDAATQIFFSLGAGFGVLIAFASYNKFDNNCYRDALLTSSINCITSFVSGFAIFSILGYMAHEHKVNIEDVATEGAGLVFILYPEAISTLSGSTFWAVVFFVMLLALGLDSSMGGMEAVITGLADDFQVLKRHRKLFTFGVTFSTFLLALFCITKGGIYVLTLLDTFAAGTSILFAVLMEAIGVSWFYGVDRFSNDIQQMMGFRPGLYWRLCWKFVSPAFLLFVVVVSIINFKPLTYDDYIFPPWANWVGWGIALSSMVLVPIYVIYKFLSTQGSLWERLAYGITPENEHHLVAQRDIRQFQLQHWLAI
Text: as §1
as §2, with “norepinephrine” for “serotonin”, “setting” for “Setting”, “(5” for “(˜2.5”
The binding assay was set up in Beckman deep-well polypropylene plates with a total volume of 250 μl containing: test compound (10^−5M to 10^−12M), cell membranes, and 50 pM [^125I]-RTI-55 (Perkin Elmer, NEX-272; specific activity 2200 Ci/mmol). The reaction was incubated by gentle agitation for 90 minutes at room temperature and was terminated by filtration through Whatman GF/C filter plates using a Brandel 96-well plate harvester. Scintillation fluid (100 μl) was added to each well, and bound [^125I]-RTI-55 was determined using a Wallac Trilux Beta Plate Counter. Test compounds were run in duplicate, and specific binding was defined as the difference between binding in the presence and absence of 10 μM desipramine.
Excel and GraphPad Prism software were used for data calculation and analysis. IC50 values were converted to Ki values using the Cheng-Prusoff equation. The Ki values (nM) for the hNET are reported below in Table 11.

| Molecule | Ki [1] [nM] | Ki [2] [nM] |
| --- | --- | --- |
| Fc1ccc(-n2nc(OC3CCNCC3)c3c(F)cccc32)cc1 [Example 83, 4-Fluoro-1-(4-fluoro-phenyl)-3-(piperidin-4-yloxy)-1H-indazole hydrochloride] | 191 | 49.3 |
| Fc1ccc(-n2nc(OC[C@H]3CCCNC3)c3c(F)cccc32)cc1 [Example 84, (S)-4-Fluoro-1-(4-fluoro-phenyl)-3-(piperidin-3-ylmethoxy)-1H-indazole hydrochloride] | 487 | 38.1 |
| Fc1ccccc1-n1nc(OC[C@H]2CCCNC2)c2c(F)cccc21 [Example 85, (S)-4-Fluoro-1-(2-fluoro-phenyl)-3-(piperidin-3-ylmethoxy)-1H-indazole hydrochloride] | 1010 | 12.5 |
| Fc1cc2c(OCC3CCCNC3)nn(-c3ccccc3)c2cc1F (stereo not shown) [Example 86, 5,6-Difluoro-1-phenyl-3-(piperidin-3-ylmethoxy)-1H-indazole hydrochloride] | 101 | 114 |
| Fc1cc2c(OC3CCNCC3)nn(-c3ccccc3)c2cc1F [Example 87, 5,6-Difluoro-1-phenyl-3-(piperidin-4-yloxy)-1H-indazole hydrochloride] | 57 | 197 |
| Fc1ccc(-n2nc(OC3CCNCC3)c3c(F)cccc32)c(F)c1 [Example 88, 1-(2,4-Difluoro-phenyl)-4-fluoro-3-(piperidin-4-yloxy)-1H-indazole hydrochloride] | 88.1 | 16.3 |
| Fc1ccc(-n2nc(OC[C@H]3CCCNC3)c3c(F)cccc32)c(F)c1 [Example 89, (S)-1-(2,4-Difluoro-phenyl)-4-fluoro-3-(piperidin-3-ylmethoxy)-1H-indazole hydrochloride] | 403 | 22.4 |
| Fc1ccc(F)c(-n2nc(OC3CCNCC3)c3c(F)cccc32)c1 [Example 90, 1-(2,5-Difluoro-phenyl)-4-fluoro-3-(piperidin-4-yloxy)-1H-indazole hydrochloride] | 142 | 10.2 |
| Fc1ccc(F)c(-n2nc(OC[C@H]3CCCNC3)c3c(F)cccc32)c1 [Example 91, (S)-1-(2,5-Difluoro-phenyl)-4-fluoro-3-(piperidin-3-ylmethoxy)-1H-indazole hydrochloride] | 610 | 7.88 |
| Fc1ccc(-n2nc(OC[C@@H]3CCNC3)c3c(F)cccc32)c(F)c1 [Example 92, (R)-1-(2,4-Difluoro-phenyl)-4-fluoro-3-(pyrrolidin-3-ylmethoxy)-1H-indazole hydrochloride] | 126 | 28.5 |
| Fc1ccc(F)c(-n2nc(OC[C@@H]3CCNC3)c3c(F)cccc32)c1 [Example 93, (R)-1-(2,5-Difluoro-phenyl)-4-fluoro-3-(pyrrolidin-3-ylmethoxy)-1H-indazole hydrochloride] | 224 | 16.4 |
| Fc1ccc(-n2nc(OC[C@@H]3CNCCO3)c3c(F)cccc32)c(F)c1 [Example 94, (S)-1-(2,4-Difluoro-phenyl)-4-fluoro-3-(morpholin-2-ylmethoxy)-1H-indazole hydrochloride] | 2850 | 40.2 |
| Fc1ccc(F)c(-n2nc(OC[C@@H]3CNCCO3)c3c(F)cccc32)c1 [Example 95, (S)-1-(2,5-Difluoro-phenyl)-4-fluoro-3-(morpholin-2-ylmethoxy)-1H-indazole hydrochloride] | 3470 | 5.47 |
| Fc1ccc2c(c1)c(OC1CCNCC1)nn2-c1ccc(F)c(F)c1 [Example 97, 1-(3,4-Difluoro-phenyl)-5-fluoro-3-(piperidin-4-yloxy)-1H-indazole hydrochloride] | 39.5 | 28.5 |
| Fc1ccccc1-n1nc(OC[C@@H]2CNCCO2)c2c(F)cccc21 [Example 98, (S)-(+)-4-Fluoro-1-(2-fluorophenyl)-3-(morpholin-2-ylmethoxy)-1H-indazole maleate] | 3860 | 27.3 |
| Fc1ccc2c(c1)c(OCC1CCCNC1)nn2-c1ccccn1 (stereo not shown) [Example 99, 5-Fluoro-3-(piperidin-3-ylmethoxy)-1-pyridin-2-yl-1H-indazole hydrochloride] | 259 | 319 |
| Clc1ccc2c(c1)c(OC1CCNCC1)nn2-c1ccccc1 [Example 101, 5-Chloro-1-phenyl-3-(piperidin-4-yloxy)-1H-indazole hydrochloride] | 304 | 607 |
| Fc1ccccc1-n1nc(OC2CCNCC2)c2cc(Cl)ccc21 [Example 102, 5-Chloro-1-(2-fluoro-phenyl)-3-(piperidin-4-yloxy)-1H-indazole hydrochloride] | 129 | 71.5 |
| Fc1cccc2c1c(OC1CCNCC1)nn2-c1ccccc1 [Example 103, 4-Fluoro-1-phenyl-3-(piperidin-4-yloxy)-1H-indazole hydrochloride] | 293 | 34.1 |
| c1ccc(-n2nc(OC[C@H]3CCCNC3)c3cccnc32)cc1 [Example 104, (S)-(−)-1-Phenyl-3-(piperidin-3-ylmethoxy)-1H-pyrazolo[3,4-b]pyridine hydrochloride] | 1580 | 89 |
| c1ccc(-n2nc(OC[C@@H]3CNCCO3)c3cccnc32)cc1 [Example 105, (S)-(+)-3-(Morpholin-2-ylmethoxy)-1-phenyl-1H-pyrazolo[3,4-b]pyridine hydrochloride] | 4240 | 294 |
| Fc1ccc2c(c1)c(OC1CCNCC1)nn2-c1c(F)cccc1F [Example 108, 1-(2,6-Difluoro-phenyl)-5-fluoro-3-(piperidin-4-yloxy)-1H-indazole hydrochloride] | 43 | 5.72 |
| Fc1cccc(F)c1-n1nc(OC2CCNCC2)c2c(F)cccc21 [Example 109, 1-(2,6-Difluoro-phenyl)-4-fluoro-3-(piperidin-4-yloxy)-1H-indazole hydrochloride] | 279 | 46.2 |
| Fc1cccc(F)c1-n1nc(OC[C@H]2CCCNC2)c2c(F)cccc21 [Example 110, (S)-1-(2,6-Difluorophenyl)-4-fluoro-3-(piperidin-3-ylmethoxy)-1H-indazole hydrochloride] | 422 | 16.3 |
| (S)-1-(2,6-Difluoro-phenyl)-3-(morpholin-2-ylmethoxy)-1H-indazole hydrochloride [Example 24] | 5430 | 9.65 |
| (S)-(−)-5-Fluoro-1-(2-fluorophenyl)-3-(piperidin-3-ylmethoxy)-1H-indazole hydrochloride [Example 47] | 47 | 13 |
